From patent publication EP2170885B1, “BETA-CARBOLINE ARYLSULFONAMIDES, METHOD FOR PREPARING THEM AND COMPOSITION COMPRISING THEM” (C4T S.C. a.r.l., priority 2007, dated 2008) come the findings set out here.

Structures are written as SMILES. Bounds are passed on as bounds.

Common to all, as to assay type: biochemical
For one assay, the target named is T1, MMP2 (Homo sapiens, UniProt P08253).
T1 construct: in full-length form in the case of MMP2
T1 sequence (P08253 110-660): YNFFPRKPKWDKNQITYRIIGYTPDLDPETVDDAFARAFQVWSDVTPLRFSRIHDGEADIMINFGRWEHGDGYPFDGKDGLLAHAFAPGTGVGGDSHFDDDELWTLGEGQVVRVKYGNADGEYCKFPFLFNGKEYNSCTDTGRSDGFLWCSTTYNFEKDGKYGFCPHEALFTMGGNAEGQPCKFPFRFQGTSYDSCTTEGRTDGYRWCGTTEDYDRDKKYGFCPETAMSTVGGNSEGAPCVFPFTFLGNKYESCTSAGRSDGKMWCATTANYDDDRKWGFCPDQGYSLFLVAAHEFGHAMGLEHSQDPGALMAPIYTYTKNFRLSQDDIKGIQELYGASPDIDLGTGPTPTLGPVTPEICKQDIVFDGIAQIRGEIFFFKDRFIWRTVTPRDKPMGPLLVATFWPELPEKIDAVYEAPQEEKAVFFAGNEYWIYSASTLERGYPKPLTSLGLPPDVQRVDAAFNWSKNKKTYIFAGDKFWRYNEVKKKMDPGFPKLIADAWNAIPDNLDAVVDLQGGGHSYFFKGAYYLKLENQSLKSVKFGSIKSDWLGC
Put plainly: Fluorimetric enzymatic test, MMP2. As to conditions: full enzyme, read-out: IC50MMP2 (full enzyme). On the procedure:
(§1) Determination of the modulatory activity on the proteolytic action of the various MMPs tested (MMP1, 2, 3, 8, 9, 12, 13 and 14) using the compounds of formula (I) according to the present invention was performed via fluorometry on a 96-well plate.
(§2) The test compounds were dissolved in DMSO to a concentration of 5 mM or 50 mM. 5-fold or 10-fold (D5 or D10) serial dilutions of each compound were prepared so as to reach the nominal range of 5 assays on which the test was performed. Each of the dilutions was added to a well containing 150 µl of activated buffer (50 mM Tris/HCl; 0.1 M NaCl; 10 mM CaCl2; 0.05% Brij 35) together with the enzyme on which the test was performed.
(§3) After incubation for one hour at 37°C of the compound with the enzyme, 50 µl of a solution of fluorogenic substrate were added to a final concentration of between 2 and 7 µM.
(§4) The fluorometric readings were then taken using a Varian Cary Eclipse spectrofluorometer regulated on the specific wavelength for the substrate used, at time T0 and after 3 hours of incubation at 37° (T3h).

The target of the next assay is T2, MMP9 (Homo sapiens, UniProt P14780).
T2 construct: in the form of the catalytic domains alone for the other MMPs
The assay is described as follows: Fluorimetric enzymatic test, MMP9. As to conditions: catalytic domain. On the procedure: as §1, §2
(§5) The concentration of the enzyme [in full-length form in the case of MMP2; in the form of the catalytic domains alone for the other MMPs] ranged between 0.5 nM and 3 nM based on the activity of the enzyme on the fluorogenic substrate used (7-methoxycoumarin-4-yl)-Pro-Leu-Gly-Leu-DPA-Ala-Arg-NH2 (MCA-1) for MMP 1, 2, 3, 8, 9, 12 and 14) and MCA-Pro-(L-cyclohexylalanine)-Gly-(L-norvaline)-His-Ala-3-(2,4-dinitrophenyl)-L-2,3-diaminopropionyl)-NH2 for MMP13) (Knight et al. 1992. FEBS Lett. 296, 263; Knauper et al. 1996, J. Biol. Chem. 271, 1544).
as §3, §4

The target of another assay is T3, MMP1 (Homo sapiens, UniProt P03956).
T3 construct: in the form of the catalytic domains alone for the other MMPs
T3 sequence (P03956 98-276 limits assumed): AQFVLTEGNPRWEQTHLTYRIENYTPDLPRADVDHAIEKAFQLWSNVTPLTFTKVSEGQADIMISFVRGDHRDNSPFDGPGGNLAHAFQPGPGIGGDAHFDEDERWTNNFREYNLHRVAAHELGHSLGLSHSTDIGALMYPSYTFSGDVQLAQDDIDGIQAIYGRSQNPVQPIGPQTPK
Put plainly: Fluorimetric enzymatic test, MMP1. As to conditions: for IC50: catalytic domain, fluorimetric test. On the procedure: as §1, §2, §3, §4

In the next assay the target is T4, MMP3 (Homo sapiens, UniProt P08254).
T4 construct: in the form of the catalytic domains alone for the other MMPs
Put plainly: Fluorimetric enzymatic test, MMP3. As to conditions: for IC50: catalytic domain, fluorimetric test. On the procedure: as §1, §2, §3, §4

In another assay the target is T5, MMP13 (Homo sapiens, UniProt P45452).
T5 construct: in the form of the catalytic domains alone for the other MMPs
Put plainly: Fluorimetric enzymatic test, MMP13. As to conditions: catalytic domain. On the procedure: as §1, §2, §3, §4

The next assay concerns the target T6, MMP8 (Homo sapiens, UniProt P22894).
T6 construct: in the form of the catalytic domains alone for the other MMPs
Put plainly: Fluorimetric enzymatic test, MMP8. As to conditions: catalytic domain. On the procedure:
as §1, §2, §5, §3, §4

The next assay deals with T7, MMP12 (Homo sapiens, UniProt P39900).
T7 construct: in the form of the catalytic domains alone for the other MMPs
Put plainly: Fluorimetric enzymatic test, MMP12. As to conditions: catalytic domain. On the procedure: as §1, §2, §5, §3, §4

Another assay has as its target T8, MMP14 (Homo sapiens, UniProt P50281).
T8 construct: in the form of the catalytic domains alone for the other MMPs
Put plainly: Fluorimetric enzymatic test, MMP14. As to conditions: for IC50: catalytic domain, fluorimetric test. The method, then:
as §1, §2, §5, §3, §4

[1] abbreviates: relative to the limit value of 0.3 nM for MMP2.

T6 sequence (P22894 100-262 limits assumed, species assumed): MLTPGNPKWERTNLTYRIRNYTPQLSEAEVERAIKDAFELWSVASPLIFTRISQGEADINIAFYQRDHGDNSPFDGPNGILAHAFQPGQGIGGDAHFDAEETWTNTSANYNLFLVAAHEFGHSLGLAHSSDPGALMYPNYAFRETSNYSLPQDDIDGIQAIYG
T2 sequence (P14780 107-444 limits assumed, species assumed): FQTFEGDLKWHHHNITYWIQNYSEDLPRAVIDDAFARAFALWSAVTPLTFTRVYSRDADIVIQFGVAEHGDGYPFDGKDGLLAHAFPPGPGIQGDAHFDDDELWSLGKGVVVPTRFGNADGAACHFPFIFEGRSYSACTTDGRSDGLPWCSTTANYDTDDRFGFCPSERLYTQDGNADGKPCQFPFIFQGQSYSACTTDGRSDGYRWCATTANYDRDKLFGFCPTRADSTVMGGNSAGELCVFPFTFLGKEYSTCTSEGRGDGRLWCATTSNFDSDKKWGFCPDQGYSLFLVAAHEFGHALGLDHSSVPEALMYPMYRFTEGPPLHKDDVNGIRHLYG
T4 sequence (P08254 100-272 limits assumed, species assumed): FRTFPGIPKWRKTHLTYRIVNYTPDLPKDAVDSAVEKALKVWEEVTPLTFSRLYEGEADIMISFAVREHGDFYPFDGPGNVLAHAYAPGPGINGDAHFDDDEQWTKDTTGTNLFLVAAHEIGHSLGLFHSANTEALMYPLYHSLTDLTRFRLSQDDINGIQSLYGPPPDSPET
T7 sequence (P39900 106-263 limits assumed, species assumed): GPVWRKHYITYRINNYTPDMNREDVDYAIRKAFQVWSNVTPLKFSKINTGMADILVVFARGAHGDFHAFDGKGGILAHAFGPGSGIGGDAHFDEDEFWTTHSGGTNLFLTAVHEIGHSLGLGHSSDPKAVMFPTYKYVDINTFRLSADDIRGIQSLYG

For the compound `O=C(O)C1c2[nH]c3ccccc3c2CCN1S(=O)(=O)c1ccc(Oc2ccc(Cl)cc2)cc1` (racemic) [Compound 8, (1 RS)-2-(4"-chloro-4'-phenoxybenzenesulfonyl)-1,2,3,4-tetrahydronorarmano-1-carboxylic acid], the IC50 on MMP2 is 10000 ± 2000 nM; on MMP9, 15000 ± 4000 nM; on MMP1 it was > 50000 nM; against MMP3, > 50000 nM; against MMP13 it was 800 ± 200 nM; at MMP8, 10000 ± 1000 nM. The IC50 is 2000 ± 200 nM against MMP12 and > 50000 nM against MMP14.

In the case of `O=C(O)C1c2[nH]c3ccccc3c2CCN1S(=O)(=O)c1ccc(Oc2ccc(F)cc2)cc1` (racemic) [Compound 9, (1 RS)-2-(4"-fluoro-4'phenoxybenzenesulfonyl)-1,2,3,4-tetrahydronorarmano-1-carboxylic acid], the IC50 was 28000 ± 1000 nM on MMP2; 4000 ± 1000 nM at MMP9; > 50000 nM against MMP1; > 50000 nM at MMP3; > 50000 nM on MMP13; 21000 ± 2000 nM against MMP8. Further, the results for the IC50 on MMP12 and against MMP14 were 2000 ± 300 nM and > 50000 nM, respectively.

As for `Cc1ccc(S(=O)(=O)N2CCc3c([nH]c4ccccc34)C2C(=O)O)cc1` (racemic) [Compound 5, (1RS)-2-(4-methylbenzenesulfonyl)-1,2,3,4-tetrahydro-norarmano-1-carboxylic acid], the IC50 at MMP2 worked out at 15000 nM; against MMP9, 141000 nM.

Regarding `CCCCOc1ccc(S(=O)(=O)N2CCc3c([nH]c4ccccc34)C2C(=O)NO)cc1` (racemic) [Compound 10, (1R,S)-2-(4'-butoxybenzenesulfonyl)-1,2,3,4-tetrahydro-norarmano-N-hydroxy-1-carboxamide], the IC50 on MMP2 was 7 ± 2.5 nM; at MMP9, 6 ± 2 nM; against MMP1, 20000 ± 2000 nM; against MMP3, 4000 ± 1500 nM; at MMP13, 2000 ± 500 nM; at MMP8, < 0.5 nM. Moreover, the IC50 on MMP12 was < 0.5 nM; at MMP14 it was 50 ± 11 nM.

Take `CC1(C)SCCN(S(=O)(=O)c2ccc(Oc3ccncc3)cc2)[C@H]1C(=O)NO` [prinomastat, (3S)-N-hydroxy-4-(4-(pyrid-4-yloxyl)benzenesulfonyl)-2,2-dimethyltetrahydro-2H-1,4-thiazine-3-carboxamide, reference compound]: the IC50 against MMP8 and against MMP12 was < 0.5 nM in each case.

In the case of `COc1ccc(Oc2ccc(S(=O)(=O)N3CCc4c([nH]c5ccccc45)C3C(=O)NO)cc2)cc1` (racemic) [Compound 12, (1 RS)-2-(4"-methoxy-4'-phenoxybenzenesulfonyl)-1,2,3,4-tetrahydronorarmano-N-hydroxy-1-carboxamide], the IC50 on MMP2 was < 0.3 nM; against MMP9, < 0.5 nM; against MMP1, 350 ± 100 nM; at MMP3, 30000 ± 10000 nM; against MMP13 it was < 0.5 nM; against MMP8, < 0.5 nM. In addition, the figures for the IC50 on MMP12 and against MMP14 were < 0.5 nM and 5 ± 1 nM, respectively.

As for `O=C(O)C1c2[nH]c3ccccc3c2CCN1S(=O)(=O)c1ccc(-c2ccccc2)cc1` (racemic) [Compound 3, (1RS)-2-(4'-phenylbenzenesulfonyl)-1,2,3,4-tetrahydro-norarmano-1-carboxylic acid], the IC50 on MMP2 is 600 ± 800 nM; at MMP9, 7500 ± 5000 nM; on MMP1 it was > 50000 nM; on MMP3 it was 11000 ± 1000 nM; against MMP13, 160 ± 50 nM; against MMP8, 3000 ± 700 nM. In addition, the results for the IC50 on MMP12 and against MMP14 were 300 ± 50 nM and 30000 ± 2000 nM, respectively.

As for `O=C(NO)C1c2[nH]c3ccccc3c2CCN1S(=O)(=O)c1ccc(-c2ccccc2)cc1` (racemic) [Compound 11, (1R,S)-2-(4'biphenylsulfonyl)-1,2,3,4-tetrahydro-norarmano-N-hydroxy-1-carboxamide], the IC50 stood at 14 ± 3 nM at MMP2; 15 ± 2 nM against MMP9; 3000 ± 1000 nM at MMP1; 600 nM against MMP3; 3 nM on MMP13; 4.7 ± 0.5 nM at MMP8. This compound returned an IC50 at MMP12 of 4 ± 1.6 nM.

Take `O=C(O)C1c2[nH]c3ccccc3c2CCN1S(=O)(=O)c1ccc2ccccc2c1` (racemic) [Compound 6, (1RS)-2-(2-naphthylsulfonyl)-1,2,3,4-tetrahydro-norarmano-1-carboxylic acid]: the IC50 at MMP2 was 2500 ± 100 nM; on MMP9, 62000 ± 5000 nM.

Turning to `O=C(NO)C1c2[nH]c3ccccc3c2CCN1S(=O)(=O)c1ccc(Oc2ccc(Cl)cc2)cc1` (racemic) [Compound 13, (1 RS)-2-(4"-chloro-4'-phenoxybenzenesulfonyl)-1,2,3,4-tetrahydronorarmano-N-hydroxy-1-carboxamide], the IC50 was < 0.3 nM on MMP2, > 50000 nM at MMP1 and 30 nM against MMP14. For the same compound, on MMP1 (setting [1]), the “decrease in inhibitory power with respect to MMP1” value is reported as “about 16 000 fold”. Further, the “decrease in inhibitory power with respect to MMP3” value at MMP3 (setting [1]) is on record as ~830 fold. Moreover, the “decrease in inhibitory power with respect to MMP14” value at MMP14 (setting [1]) is ~100 fold.

In the case of `O=C(NO)C1c2[nH]c3ccccc3c2CCN1S(=O)(=O)c1ccc(Oc2ccc(F)cc2)cc1` (racemic) [Compound 14, (1RS)-2-(4"-fluoro-4'-phenoxybenzenesulfonyl)-1,2,3,4-tetrahydronorarmano-N-hydroxy-1-carboxamide], the IC50 is < 0.3 nM on MMP2; < 0.5 nM on MMP9; 340 ± 100 nM against MMP1; 600 ± 200 nM at MMP3; < 0.5 nM against MMP13; < 0.5 nM against MMP8. The IC50 at MMP14 stood at 3.2 ± 0.1 nM.

On to `CC(C)(C)c1ccc(S(=O)(=O)N2CCc3c([nH]c4ccccc34)C2C(=O)O)cc1` (racemic) [Compound 7, (1 RS)-2-(4'-t-butylbenzenesulfonyl)-1,2,3,4-tetrahydro-norarmano-1-carboxylic acid], for which, at MMP2, the IC50 was > 125000 nM.

For the compound `COc1ccc2[nH]c3c(c2c1)CCNC3C(=O)O` (stereo not shown) [6-methoxy-1,2,3,4-tetrahydronorarmano-1-carboxylic acid, reference compound], at MMP8, the IC50 is 200 nM.

For the compound `CCCCOc1ccc(S(=O)(=O)N2CCc3c([nH]c4ccccc34)C2C(=O)O)cc1` (racemic) [Compound 4, (1 RS)-2-(4'-butoxybenzenesulfonyl)-1,2,3,4-tetrahydro-norarmano-1-carboxylic acid], the IC50 was 680 ± 200 nM on MMP2; 24000 ± 1000 nM at MMP9; > 50000 nM against MMP1; 2000 ± 500 nM against MMP13; 30000 nM against MMP8; 4500 ± 1000 nM on MMP12.

On to `COc1ccc(Oc2ccc(S(=O)(=O)N3CCc4c([nH]c5ccccc45)C3C(=O)O)cc2)cc1` (racemic) [Compound 2, (1RS)-2-(4"-methoxy-4'-phenoxybenzenesulfonyl)-1,2,3,4-tetrahydronorarmano-1-carboxylic acid], for which the IC50 at MMP2 is 600 ± 100 nM; on MMP9 it was 2200 ± 800 nM; at MMP1 it was > 50000 nM; against MMP3, > 50000 nM; at MMP13 it was 15000 ± 5000 nM; at MMP8, 1600 ± 200 nM. Besides, the values for the IC50 on MMP12 and on MMP14 were 500 ± 100 nM and > 50000 nM, respectively.
